Here are results for 23 compounds from patent publication US9403802B2, “Heterocyclic compound and use therefor” (Takeda Pharmaceutical Company Limited, priority 2012, dated 2016).

Read-outs that look alike come from different tables or passages of the source.

For this assay, the target named is T1, human M1 receptor (hCHRM1) (Homo sapiens, UniProt P11229).
T1 construct: expressed in transfected cells; host or cells: CHO-K1
T1 sequence (P11229 1-460): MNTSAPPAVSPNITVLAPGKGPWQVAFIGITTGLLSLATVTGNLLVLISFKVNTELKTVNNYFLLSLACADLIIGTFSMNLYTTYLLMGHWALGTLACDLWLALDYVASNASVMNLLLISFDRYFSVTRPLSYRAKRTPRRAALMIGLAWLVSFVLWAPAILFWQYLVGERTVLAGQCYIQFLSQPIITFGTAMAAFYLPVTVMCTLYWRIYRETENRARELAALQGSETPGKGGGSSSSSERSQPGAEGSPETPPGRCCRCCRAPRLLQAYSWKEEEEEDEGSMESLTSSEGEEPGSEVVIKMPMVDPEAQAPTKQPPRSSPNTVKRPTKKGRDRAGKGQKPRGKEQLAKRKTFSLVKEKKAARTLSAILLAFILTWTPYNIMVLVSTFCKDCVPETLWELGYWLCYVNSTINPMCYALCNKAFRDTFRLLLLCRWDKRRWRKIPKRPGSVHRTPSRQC
Put plainly: Measurement of cholinergic muscarinic M1 receptor positive allosteric modulator (M1PAM) activity, calcium fluorescence (FLIPRtetra). The conditions noted are these: for activity (%) at 10 μM: test compound 10 μM with acetylcholine at EC20 (final 0.6 nM), 100% = acetylcholine 1 μM, 0% = DMSO. It counts as cell-based. As for the experimental part:
The activity of a test compound in the presence of acetylcholine at EC20 concentration (final concentration 0.6 nM), which affords an action corresponding to 20% of the maximum activity, was measured as M1PAM activity. The method is as follows. CHO-K1 cells forcibly expressing a human M1 receptor (hCHRM1) were plated on a 384-well black clear bottom plate (BD Falcon) at 5,000 cells/well, and cultured in an incubator at 37° C., 5% CO2 for 1 day. The medium in the cell plate was removed, and assay buffer A (Recording medium (DOJINDO LABORATORIES), 0.1% bovine serum albumin (BSA) (Wako Pure Chemical Industries, Ltd.), 2.5 μg/mL Fluo-4 AM (DOJINDO LABORATORIES), 0.08% Pluronic F127 (DOJINDO LABORATORIES), 1.25 mM probenecid (DOJINDO LABORATORIES)) containing a calcium indicator was added at 30 μL/well. The cells were left standing in the incubator at 37° C., 5% CO2 for 30 min, and further left standing at room temperature for 30 min. A test compound prepared by diluting with assay buffer B (HBSS (Invitrogen), 20 mM HEPES (Invitrogen), 0.1% BSA) containing 2.4 nM acetylcholine was added at 10 μL/well, and the fluorescence was measured by FLIPRtetra (Molecular Devices) for 1 min every 1 second. With the definition that the amount of change in the fluorescence on addition of acetylcholine (final concentration 1 μM) is 100% and that on addition of DMSO instead of a test compound is 0%, the activity (%) of the test compound and the inflection point in the concentration-dependent curve of the test compound were calculated as IP values.

Setting [1] is: inflection point of the concentration-dependent curve, with acetylcholine at EC20 (final 0.6 nM), CHO-K1 cells expressing hCHRM1, read-out: IP value.

In the case of `NC(=O)c1ccc(Cn2nc(C(N)=O)c(=O)c3ccccc32)cc1` [Example 73, 1-(4-carbamoylbenzyl)-4-oxo-1,4-dihydrocinnoline-3-carboxamide], under setting [1], the EC50 was 0.063 µM. Besides, under “CHO-K1 cells expressing hCHRM1”, the “activity (%) at 10 μM” value stood at 96%.
On to `NC(=O)c1ccc(Cn2nc(C(=O)N[C@H]3CCCC[C@@H]3O)c(=O)c3ccccc32)cc1` (racemic) [Example 75, 1-(4-carbamoylbenzyl)-N-[(1,2-trans)-2-hydroxycyclohexyl]-4-oxo-1,4-dihydrocinnoline-3-carboxamide], for which, under setting [1], the EC50 is 0.0077 µM. Moreover, for the setting “CHO-K1 cells expressing hCHRM1”, the “activity (%) at 10 μM” value came to 99%.
On to `COc1ccc(Cn2nc(C(=O)N[C@@H]3CCCC[C@H]3O)c(=O)c3ccccc32)cc1` [Example 52, N-[(1R,2R)-2-hydroxycyclohexyl]-1-(4-methoxybenzyl)-4-oxo-1,4-dihydrocinnoline-3-carboxamide], for which the EC50 under setting [1] was 1.9 µM. Also, under “CHO-K1 cells expressing hCHRM1”, the “activity (%) at 10 μM” value came out at 87%.
As for `COc1ccc(Cn2nc(C(=O)N[C@H]3CCCC[C@@H]3O)c(=O)c3ccccc32)cc1` [Example 51, N-[(1S,2S)-2-hydroxycyclohexyl]-1-(4-methoxybenzyl)-4-oxo-1,4-dihydrocinnoline-3-carboxamide], under setting [1], the EC50 was determined as 0.068 µM. Also, the “activity (%) at 10 μM” value (CHO-K1 cells expressing hCHRM1) was found to be 97%.
The like results for `COc1ccc(Cn2nc(C(=O)N[C@H]3CCOC[C@@H]3O)c(=O)c3ccccc32)cc1` (racemic) [Example 71, 1,5-anhydro-2,3-dideoxy-3-({[1-(4-methoxybenzyl)-4-oxo-1,4-dihydrocinnolin-3-yl]carbonyl}amino)-DL-threo-pentitol] were, in that order, 0.016 µM and 97%.
`NC(=O)c1ccc(Cn2cc(C(=O)N[C@H]3CCCC[C@@H]3F)c(=O)c3ccccc32)cc1` (racemic) [Example 88, 1-(4-carbamoylbenzyl)-N-[(1,2-trans)-2-fluorocyclohexyl]-4-oxo-1,4-dihydroquinoline-3-carboxamide]: the EC50 stood at 0.012 µM. The “activity (%) at 10 μM” value (CHO-K1 cells expressing hCHRM1) was 101%.
`COc1ccc(Cn2cc(C(=O)NC3CCCCC3CO)c(=O)c3c(F)ccc(F)c32)cc1` (racemic) [Example 65, 5,8-difluoro-N-[(1,2-trans)-2-(hydroxymethyl)-cyclohexyl]-1-(4-methoxybenzyl)-4-oxo-1,4-dihydroquinoline-3-carboxamide]: the EC50 under setting [1] came out at 0.42 µM. Moreover, for the setting “CHO-K1 cells expressing hCHRM1”, the “activity (%) at 10 μM” value stood at 96%.
Consider `COc1ccc(Cn2cc(C(=O)NCCO)c(=O)c3c(F)ccc(F)c32)cc1` [Example 17, 5,8-difluoro-N-(2-hydroxyethyl)-1-(4-methoxybenzyl)-4-oxo-1,4-dihydroquinoline-3-carboxamide], for which the EC50 under setting [1] turned out to be 5.8 µM. The “activity (%) at 10 μM” value (CHO-K1 cells expressing hCHRM1) was determined as 69%.
With `COc1ccc(Cn2cc(C(=O)NN)c(=O)c3ccccc32)cc1` [Example 13, 1-(4-methoxybenzyl)-4-oxo-1,4-dihydroquinoline-3-carbohydrazide], under setting [1], the EC50 was 6.1 µM. The “activity (%) at 10 μM” value (CHO-K1 cells expressing hCHRM1) turned out to be 77%.
With `COc1ccc(Cn2cc(C(=O)N[C@H]3CC(F)(F)CC[C@@H]3O)c(=O)c3c(F)ccc(F)c32)cc1` (racemic) [Example 84, N-[(1,2-trans)-5,5-difluoro-2-hydroxycyclohexyl]-5,8-difluoro-1-(4-methoxybenzyl)-4-oxo-1,4-dihydroquinoline-3-carboxamide], the EC50 is 0.091 µM. Further, the “activity (%) at 10 μM” value (CHO-K1 cells expressing hCHRM1) came out at 85%.
As for `Cc1cc(-c2ccc(Cn3cc(C(=O)N[C@H]4CCC[C@@H]4O)c(=O)c4ccccc43)cc2)ccn1` (racemic) [Example 93, N-[(1,2-trans)-2-hydroxycyclopentyl]-1-[4-(2-methylpyridin-4-yl)benzyl]-4-oxo-1,4-dihydroquinoline-3-carboxamide], the EC50 worked out at 0.012 µM. In addition, the “activity (%) at 10 μM” value (CHO-K1 cells expressing hCHRM1) is reported as 95%.
On to `O=C(N[C@H]1CCCC[C@@H]1O)c1cn(Cc2ccc(-n3cccn3)cc2)c2c(F)cccc2c1=O` (racemic) [Example 80, 8-fluoro-N-[(1,2-trans)-2-hydroxycyclohexyl]-4-oxo-1-[4-(1H-pyrazol-1-yl)benzyl]-1,4-dihydroquinoline-3-carboxamide], for which the EC50 is 0.021 µM. In addition, under “CHO-K1 cells expressing hCHRM1”, the “activity (%) at 10 μM” value turned out to be 92%.
For the compound `CC(F)(F)c1ccc(Cn2cc(C(=O)N[C@H]3CCCC[C@@H]3O)c(=O)c3ccccc32)cc1` (racemic) [Example 82, 1-[4-(1,1-difluoroethyl)-benzyl]-N-[(1,2-trans)-2-hydroxycyclohexyl]-4-oxo-1,4-dihydroquinoline-3-carboxamide], the EC50 under setting [1] stood at 0.17 µM. The “activity (%) at 10 μM” value (CHO-K1 cells expressing hCHRM1) is given as 83%.
Regarding `O=C(N[C@H]1CCCC[C@@H]1O)c1nn(Cc2ccc(-n3cccn3)cc2)c2ccccc2c1=O` (racemic) [Example 4, N-[(1,2-trans)-2-hydroxycyclohexyl]-4-oxo-1-[4-(1H-pyrazol-1-yl)benzyl]-1,4-dihydrocinnoline-3-carboxamide], the EC50 under setting [1] turned out to be 0.027 µM. Further, the “activity (%) at 10 μM” value (CHO-K1 cells expressing hCHRM1) was determined as 107%.
As to `NC(=O)c1ccc(Cn2cc(C(=O)N[C@H]3CCCC[C@@H]3O)c(=O)c3ccccc32)cc1` (racemic) [Example 74, 1-(4-carbamoylbenzyl)-N-[(1,2-trans)-2-hydroxycyclohexyl]-4-oxo-1,4-dihydroquinoline-3-carboxamide], the EC50 came out at 0.0054 µM. Also, the “activity (%) at 10 μM” value (CHO-K1 cells expressing hCHRM1) is given as 97%.
On to `NC(=O)c1ccc(Cn2cc(C(=O)N[C@H]3CCCC[C@@H]3O)c(=O)c3ccccc32)cc1` [Example 78, 1-(4-carbamoylbenzyl)-N-[(1S,2S)-2-hydroxycyclohexyl]-4-oxo-1,4-dihydroquinoline-3-carboxamide], for which the EC50 is 0.0022 µM. For the same compound, the “activity (%) at 10 μM” value (CHO-K1 cells expressing hCHRM1) is 86%.
`CNC(=O)c1cn(Cc2ccc(OC)cc2)c2c(F)ccc(F)c2c1=O` [Example 7, 5,8-difluoro-1-(4-methoxybenzyl)-N-methyl-4-oxo-1,4-dihydroquinoline-3-carboxamide]: under setting [1], the EC50 amounted to 3.5 µM. Besides, the “activity (%) at 10 μM” value (CHO-K1 cells expressing hCHRM1) is given as 71%.
For `COc1ccc(Cn2cc(C(=O)NC3CC3)c(=O)c3c(F)ccc(F)c32)cc1` [Example 8, N-cyclopropyl-5,8-difluoro-1-(4-methoxybenzyl)-4-oxo-1,4-dihydroquinoline-3-carboxamide], the EC50 under setting [1] is 2 µM. Besides, under “CHO-K1 cells expressing hCHRM1”, the “activity (%) at 10 μM” value came to 100%.
Regarding `COc1ccc(Cn2cc(C(=O)NN3CCCCC3)c(=O)c3c(F)ccc(F)c32)cc1` [Example 21, 5,8-difluoro-1-(4-methoxybenzyl)-4-oxo-N-piperidin-1-yl-1,4-dihydroquinoline-3-carboxamide], the EC50 under setting [1] turned out to be 0.28 µM. In addition, the “activity (%) at 10 μM” value (CHO-K1 cells expressing hCHRM1) worked out at 97%.
Take `COCCNC(=O)c1cn(Cc2ccc(OC)cc2)c2c(F)ccc(F)c2c1=O` [Example 20, 5,8-difluoro-1-(4-methoxybenzyl)-N-(2-methoxyethyl)-4-oxo-1,4-dihydroquinoline-3-carboxamide]: the EC50 under setting [1] came out at 5 µM. Besides, the “activity (%) at 10 μM” value (CHO-K1 cells expressing hCHRM1) stood at 72%.
The like results for `COc1ccc(Cn2cc(C(=O)NC3CCCCC3)c(=O)c3c(F)ccc(F)c32)cc1` [Example 14, N-cyclohexyl-5,8-difluoro-1-(4-methoxybenzyl)-4-oxo-1,4-dihydroquinoline-3-carboxamide] were, in that order, 0.92 µM and 96%.
On to `COc1ccc(Cn2cc(C(=O)N[C@H]3CCC[C@@H]3O)c(=O)c3c(F)ccc(F)c32)cc1` (racemic) [Example 25, 5,8-difluoro-N-[(1,2-trans)-2-hydroxycyclopentyl]-1-(4-methoxybenzyl)-4-oxo-1,4-dihydroquinoline-3-carboxamide], for which the EC50 under setting [1] is 0.19 µM. Also, the “activity (%) at 10 μM” value (CHO-K1 cells expressing hCHRM1) is recorded as 98%.
With `O=C(N[C@H]1CCCC[C@@H]1O)c1cn(Cc2ccc(-c3ccn[nH]3)cc2)c2ccccc2c1=O` (racemic) [Example 85, N-[(1,2-trans)-2-hydroxycyclohexyl]-4-oxo-1-[4-(1H-pyrazol-5-yl)benzyl]-1,4-dihydroquinoline-3-carboxamide], the EC50 came to 0.0047 µM. The “activity (%) at 10 μM” value (CHO-K1 cells expressing hCHRM1) is given as 90%.
